Measured values from patent publication US20240199618A1, “NOVEL N-ACYL-[3-SUBSTITUTED]-[8-SUBSTITUTED]-5,6-DIHYDRO-[1,2,4]TRIAZOLO[4,3-a]PYRAZINES AS SELECTIVE NK-3 RECEPTOR ANTAGONISTS, PHARMACEUTICAL COMPOSITION, METHODS FOR USE IN NK-3 RECEPTOR-MEDIATED DISORDERS” (Ogeda SA, priority 2013, published 2024).

Experiments:
human NK-3 receptor = human NK-3 receptor (Homo sapiens (Human), UniProt P29371); assay: Aequorin functional assay with human NK-3 receptor (antagonist testing vs NKA); type: cell-based; details: CHO cells, NKA at EC80 (3 nM); read-out: Functional assay: Aequorin assay with human NK-3 receptor hNK-3-AEQ (antagonist IC50)
Chain of human NK-3 receptor (P29371 whole entry): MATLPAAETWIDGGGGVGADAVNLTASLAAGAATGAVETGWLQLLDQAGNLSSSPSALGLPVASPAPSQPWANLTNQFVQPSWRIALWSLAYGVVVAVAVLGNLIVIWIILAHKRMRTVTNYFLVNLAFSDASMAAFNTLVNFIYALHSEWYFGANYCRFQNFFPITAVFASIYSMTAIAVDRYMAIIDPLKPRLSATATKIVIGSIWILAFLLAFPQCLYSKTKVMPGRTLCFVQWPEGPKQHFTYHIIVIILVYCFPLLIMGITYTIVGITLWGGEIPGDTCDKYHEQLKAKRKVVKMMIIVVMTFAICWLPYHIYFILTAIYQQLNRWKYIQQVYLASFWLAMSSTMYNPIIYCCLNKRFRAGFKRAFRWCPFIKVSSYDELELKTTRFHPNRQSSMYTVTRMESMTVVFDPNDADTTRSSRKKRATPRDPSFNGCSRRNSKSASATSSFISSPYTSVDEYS
Outline: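 CHO cells co-expressing human NK-3 receptor and apoaequorin were pre-incubated 3 min with compound, then challenged with NKA at EC80 (3 nM). Coelenterazine-dependent luminescence was integrated over 90 s, and antagonism was derived from concentration-dependent inhibition of the calcium response.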

plasma testosterone = assay: Plasma testosterone in gonad intact male rats; type: in vivo, rat; details: 3 mg/kg oral, vs vehicle, FIG. 1
Protocol: Effect of Compounds of the Invention on Plasma Testosterone in Gonad Intact Male Rats
The study was designed to evaluate the effect of compounds of the invention on testosterone circulating levels following oral administration at 3 mg/kg on SD gonad intact male rats.
Briefly the experimental methods used for this study were as follows:
Two groups of non-fasted rats (male, Sprague-Dawley, 200 to 225 g; n=4 rats/group) with jugular vein cannulation, were dosed via a single oral administration of compounds of the invention at 3 mg/kg. The control group was dosed with the vehicle. Compounds of the invention were prepared in a dose formulation of pyrogen-free water with 0.5% methylcellulose. Blood samples were collected via the catheter implanted in the jugular vein at pre-determined intervals using EDTA-3K as anti-coagulant. Samples were chilled and rapidly processed by centrifugation to obtain corresponding plasma samples. Testosterone hormone levels were determined by RIA performed on plasma samples collected for all the groups at 5 minutes before administration (basal time), and at 45, 90, 150, 300, 480 minutes and 24 hours after dosing.

[1] = tested on: hot flashes in postmenopausal women; assay: Phase 2a clinical trial, menopausal hot flashes; type: in vivo, human
Protocol: Clinical Evaluation of compound n^o 5 for the Treatment of Menopausal Hot Flashes Objectives: The study objective is to evaluate the effect of compound n^o 5 on the severity and frequency of hot flashes in postmenopausal women. Design and Setting: The Phase 2a clinical trial was conducted in 80 patients, divided over 2 treatment groups of 40 patients each. […] The Phase 2a trial was double blind and randomized. This Phase 2a trial was conducted on healthy menopausal women (40-65 y) experiencing at least 49 moderate or severe hot flashes or night sweats over a period of 7 consecutive days in the screening period (maximum of 4 weeks). The study was conducted on an ambulatory basis where patients were asked to visit the clinical site on the first day of dosing and at weeks 4, 8, 12 during the treatment period with a follow-up visit 2-3 weeks after conclusion of dosing. Hot flashes were to be reported daily in the morning and the evening using an electronic diary tool. These reported events were used to calculate the Hot Flash Frequency and the Hot Flash Score. The weekly number of hot flashes was calculated in two ways: cumulatively for all severity grades, and cumulatively but leaving out the number of mild hot flashes. Hot Flash Frequencies were calculated for weeks 4 and 12. The Hot Flash Score (HFS) is a composite score combining both frequency and severity. This score is an accepted method to assess the overall severity of the hot flash burden and is calculated weekly. The score is a general measure of the number and severity of all hot flashes occurred during a given time period. The Hot Flash Score (based on severity and frequency) is calculated as follows: • day-score=(number of mild hot flashes/day×1)+(number of moderate hot flashes/day×2)+(number of severe hot flashes/day×3) • The weekly hot flash score is calculated: […] Higher scores indicate worse symptoms.

[2] = tested on: serum Total Testosterone, LH, FSH in women with PCOS; assay: Phase 2a clinical trial, PolyCystic Ovary Syndrome (PCOS); type: in vivo, human
Protocol: Clinical Evaluation of Compound n^o 5 for the Treatment of PolyCystic Ovary Syndrome (PCOS)
Objectives: The study objectives are to evaluate the effect of compound n^o 5 on the serum levels of Total Testosterone (TT), Luteinizing Hormone (LH), Follicle Stimulating Hormone (FSH) and LH:FSH ratio after 12 weeks of treatment.
Design and Setting: The Phase 2a clinical trial was conducted in 48 patients, divided over 2 treatment groups of 24 patients each. One group received placebo while the other group received 180 mg of compound n^o 5 once daily (QD) for a period of 12 weeks. The Phase 2a trial was double blind and randomized. […] The study was conducted on an ambulatory basis where patients were asked to visit the clinical site on the first day of dosing and at weeks 3, 6, 9 and 12 during the treatment period with a follow-up visit 2-3 weeks after conclusion of dosing.
Blood draws for LH, FSH and TT were taken every visit between 2 and 8 hours after drug intake (baseline and week 3-6-12). At week 9 the blood samples were taken in the morning before drug intake (i.e. at trough PK concentrations for compound n^o 5). These blood draws were the basis for assessing the primary (TT) and secondary (LH, FSH, LH:FSH ratio) endpoints. The primary endpoint of Total Testosterone was measured according to GLP using an LC-MS/MS method.
PCOS is typically characterized by excessive ovarian androgen production, failure of ovulation, and slightly enlarged ovaries with numerous peripheral small follicles that appear as cysts. The disorder is commonly accompanied by infertility. Typically, the clinical features of PCOS are associated with hypersecretion of LH and androgens (TT) but with normal serum concentrations of FSH hormone. Laboratory examinations reveal elevated TT levels in about 50% of the patients, accompanied by an elevated LH:FSH ratio (>2) due to the imbalanced secretion of both hormones (a ratio of 1 is considered normal).

[3] = 90 mg BID, postmenopausal women
[4] = Baseline, 90 mg BID group, moderate and severe hot flashes

`Cc1nsc(-c2nnc3n2CCN(C(=O)c2ccc(F)cc2)[C@@H]3C)n1` [Compound 5, (R)-(4-fluorophenyl)(8-methyl-3-(3-methyl-1,2,4-thiadiazol-5-yl)-5,6-dihydro-[1,2,4]triazolo[4,3-a]pyrazin-7(8H)-yl)methanone] was tested, and the IC50 (human NK-3 receptor) was 0.018 µM, the plasma testosterone level (plasma testosterone) was “significantly suppressed” and the “Frequency of hot flashes in comparison of placebo” value [1, 3] was “significantly reduced”. The “Score of hot flashes in comparison of placebo” value [1, 3] was “significantly reduced”, the “Hot Flash Score (mean)” value [1, 4] was 29.08 and the “Hot Flashes Frequency (mean)” value [1, 4] was 11.84. The “Hot Flash Score (mean)” value ([1]; Week 4, 90 mg BID oral) was 2.96, the “Hot Flashes Frequency (mean)” value ([1]; Week 4, 90 mg BID oral) was 1.35 and the “Hot Flash Score (mean)” value ([1]; Week 12, 90 mg BID oral) was 1.70. For the same molecule, the “Hot Flashes Frequency (mean)” value ([1]; Week 12, 90 mg BID oral) was 0.79, the FSH secretion ([2]; 180 mg QD, women with PCOS) was “preserved” and the LH ([2]; 180 mg QD, women with PCOS) was “significant decrease”. The “LH:FSH in comparison of placebo” value ([2]; 180 mg QD, women with PCOS) was “significantly reduced”, the “TT in comparison of placebo” value ([2]; 180 mg QD, women with PCOS) was “significantly reduced” and the “Total Testosterone (mean)” value ([2]; Baseline, 180 mg QD group) was 2.16 nmol/L. The “Total Testosterone (mean)” value ([2]; Week 6, 180 mg QD oral) was 1.41 nmol/L and the “Total Testosterone (mean)” value ([2]; Week 12, 180 mg QD oral) was 1.39 nmol/L.
